Patent US6737383B1, “Herbicidal oxadiazolidines” (priority 1999, dated 2004)

Legend:
[1] = system: bedstraw; assay: Test B pre/postemergence bedstraw; format: in vivo, Galium aparine
In short: (§1)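 Response is a visual 0-to-10 score relative to untreated plants, where 0 means no effect and 10 means complete control, taken twelve to sixteen days after application. Treatments went onto soil at planting and onto foliage of 1- to 4-leaf plants, using a surfactant-containing non-phytotoxic solvent.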

[2] = system: blackgrass; assay: Test B pre/postemergence blackgrass; format: in vivo, Alopecurus myosuroides
In short: as §1

[3] = system: surinam grass; assay: Test B pre/postemergence surinam grass; format: in vivo, Brachiaria decumbens
In short: as §1

[4] = system: cocklebur; assay: Test B pre/postemergence cocklebur; format: in vivo, Xanthium strumarium
In short: as §1

[5] = system: corn; assay: Test B pre/postemergence corn; format: in vivo, Zea mays
In short: as §1

[6] = system: giant foxtail; assay: Test B pre/postemergence giant foxtail; format: in vivo, Setaria faberii
In short: as §1

[7] = system: morningglory; assay: Test B pre/postemergence morningglory; format: in vivo, Ipomoea hederacea
In short: as §1

[8] = system: pigweed; assay: Test B pre/postemergence pigweed; format: in vivo, Amaranthus retroflexus
In short: as §1

[9] = system: rape; assay: Test B pre/postemergence rape; format: in vivo, Brassica napus
In short: as §1

[10] = system: soybean; assay: Test B pre/postemergence soybean; format: in vivo, Glycine max
In short: as §1

[11] = system: sugar beet; assay: Test B pre/postemergence sugar beet; format: in vivo, Beta vulgaris
In short: as §1

[12] = system: velvetleaf; assay: Test B pre/postemergence velvetleaf; format: in vivo, Abutilon theophrasti
In short: as §1

[13] = system: wheat; assay: Test B pre/postemergence wheat; format: in vivo, Triticum aestivum
In short: as §1

[14] = system: wild oat; assay: Test B pre/postemergence wild oat; format: in vivo, Avena fatua
In short: as §1

[15] = system: rice; assay: Test B flood test rice; format: in vivo, Oryza sativa
In short: (§2)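 Plants were grown to the 2-leaf stage before treatment with test chemical, then held in a greenhouse for twelve to sixteen days. Injury was visually rated against untreated controls on a 0–10 scale, where 0 is no effect and 10 is complete control.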

[16] = system: smallflower flatsedge; assay: Test B flood test smallflower flatsedge; format: in vivo, Cyperus difformis
In short: as §2

[17] = Postemergence, Rate 62 g/ha, scale 0 to 10, 0 is no effect, 10 is complete control
[18] = Preemergence, Rate 62 g/ha, scale 0 to 10, 0 is no effect, 10 is complete control
[19] = Preemergence, Rate 125 g/ha, scale 0 to 10 (0 no effect, 10 complete control)
[20] = Preemergence, Rate 250 g/ha, scale of 0 to 10 where 0 is no effect and 10 is complete control
[21] = Preemergence, Rate 500 g/ha, scale 0 (no effect) to 10 (complete control)
[22] = Postemergence, Rate 250 g/ha, scale 0 to 10, 0 no effect, 10 complete control
[23] = Rate 125 g/ha, Postemergence, scale 0 to 10, 0 no effect, 10 complete control
[24] = Rate 500 g/ha, Postemergence, 0 to 10 scale (0 no effect, 10 complete control)
[25] = Rate 125 g/ha, Postemergence section (flood test species), scale 0 to 10, 0 no effect, 10 complete control
[26] = flood test, listed under Postemergence, Rate 250 g/ha, scale 0 to 10, 0 no effect, 10 complete control

Compound: Cc1ccccc1-n1c(=O)on(C(=O)N(c2ccc(Cl)cc2)C(C)C)c1=O [Compound 41]
- Bedstraw plant response rating [1, 17]: 0
- Plant response rating, Bedstraw [1, 18]: 0
- Plant response rating, Bedstraw [1, 19]: 0
- Plant response rating, Bedstraw [1, 20]: 0
- Bedstraw plant response rating [1, 21]: 0
- Blackgrass plant response rating [2, 17]: 0
- Blackgrass plant response rating [2, 22]: 3
- Plant response rating, Blackgrass [2, 18]: 0
- Plant response rating, Blackgrass [2, 19]: 0
- Plant response rating, Blackgrass [2, 20]: 2
- Blackgrass plant response rating [2, 21]: 4
- Blackgrass plant response rating [2, 23]: 0
- Blackgrass plant response rating [2, 24]: 4
- B. signalgrass plant response rating [3, 17]: 0
- B. signalgrass plant response rating [3, 22]: 0
- Plant response rating, B. signalgrass [3, 18]: 0
- Plant response rating, B. signalgrass [3, 19]: 0
- Plant response rating, B. signalgrass [3, 20]: 4
- B. signalgrass plant response rating [3, 21]: 7
- B. signalgrass plant response rating [3, 23]: 0
- B. signalgrass plant response rating [3, 24]: 0
- Cocklebur plant response rating [4, 17]: 0
- Cocklebur plant response rating [4, 22]: 1
- Plant response rating, Cocklebur [4, 18]: 0
- Plant response rating, Cocklebur [4, 19]: 0
- Plant response rating, Cocklebur [4, 20]: 0
- Cocklebur plant response rating [4, 21]: 0
- Cocklebur plant response rating [4, 23]: 0
- Cocklebur plant response rating [4, 24]: 3
- Corn plant response rating [5, 17]: 0
- Corn plant response rating [5, 22]: 0
- Plant response rating, Corn [5, 18]: 0
- Plant response rating, Corn [5, 19]: 0
- Plant response rating, Corn [5, 20]: 0
- Corn plant response rating [5, 21]: 0
- Corn plant response rating [5, 23]: 0
- Corn plant response rating [5, 24]: 0
- Giant foxtail plant response rating [6, 17]: 0
- Giant foxtail plant response rating [6, 22]: 1
- Plant response rating, Giant foxtail [6, 18]: 4
- Plant response rating, Giant foxtail [6, 19]: 9
- Plant response rating, Giant foxtail [6, 20]: 10
- Giant foxtail plant response rating [6, 21]: 10
- Giant foxtail plant response rating [6, 23]: 0
- Giant foxtail plant response rating [6, 24]: 1
- Morningglory plant response rating [7, 17]: 1
- Morningglory plant response rating [7, 22]: 2
- Plant response rating, Morningglory [7, 18]: 0
- Plant response rating, Morningglory [7, 19]: 0
- Plant response rating, Morningglory [7, 20]: 0
- Morningglory plant response rating [7, 21]: 0
- Morningglory plant response rating [7, 23]: 2
- Morningglory plant response rating [7, 24]: 6
- Redroot pigweed plant response rating [8, 17]: 0
- Redroot pigweed plant response rating [8, 22]: 3
- Plant response rating, Redroot pigweed [8, 18]: 0
- Plant response rating, Redroot pigweed [8, 19]: 1
- Plant response rating, Redroot pigweed [8, 20]: 1
- Redroot pigweed plant response rating [8, 21]: 7
- Redroot pigweed plant response rating [8, 23]: 0
- Redroot pigweed plant response rating [8, 24]: 5
- Rape plant response rating [9, 17]: 0
- Rape plant response rating [9, 22]: 0
- Plant response rating, Rape [9, 18]: 0
- Plant response rating, Rape [9, 19]: 0
- Plant response rating, Rape [9, 20]: 0
- Rape plant response rating [9, 21]: 0
- Rape plant response rating [9, 23]: 0
- Rape plant response rating [9, 24]: 0
- Soybean plant response rating [10, 17]: 3
- Soybean plant response rating [10, 22]: 4
- Plant response rating, Soybean [10, 18]: 0
- Plant response rating, Soybean [10, 19]: 0
- Plant response rating, Soybean [10, 20]: 0
- Soybean plant response rating [10, 21]: 0
- Soybean plant response rating [10, 23]: 3
- Sugarbeets plant response rating [11, 17]: 0
- Sugarbeets plant response rating [11, 22]: 0
- Plant response rating, Sugarbeets [11, 18]: 0
- Plant response rating, Sugarbeets [11, 19]: 0
- Plant response rating, Sugarbeets [11, 20]: 0
- Sugarbeets plant response rating [11, 21]: 0
- Sugarbeets plant response rating [11, 23]: 0
- Velvetleaf plant response rating [12, 17]: 0
- Velvetleaf plant response rating [12, 22]: 0
- Plant response rating, Velvetleaf [12, 18]: 0
- Plant response rating, Velvetleaf [12, 19]: 0
- Plant response rating, Velvetleaf [12, 20]: 0
- Velvetleaf plant response rating [12, 21]: 0
- Velvetleaf plant response rating [12, 23]: 0
- Wheat plant response rating [13, 17]: 0
- Wheat plant response rating [13, 22]: 0
- Plant response rating, Wheat [13, 18]: 0
- Plant response rating, Wheat [13, 19]: 0
- Plant response rating, Wheat [13, 20]: 0
- Wheat plant response rating [13, 21]: 0
- Wheat plant response rating [13, 23]: 0
- Wild oats plant response rating [14, 17]: 0
- Wild oats plant response rating [14, 22]: 0
- Plant response rating, Wild oats [14, 19]: 0
- Plant response rating, Wild oats [14, 20]: 0
- Wild oats plant response rating [14, 21]: 4
- Wild oats plant response rating [14, 23]: 0
- Rice plant response rating [15, 17]: 0
- Rice plant response rating [15, 25]: 0
- Rice plant response rating ([15]; Rate 500 g/ha, Postemergence section of Table B, 0 to 10 scale (0 no effect, 10 complete control)): 0
- Rice plant response rating [15, 26]: 0
- S. Flatsedge plant response rating [16, 17]: 0
- S. Flatsedge plant response rating [16, 25]: 0
- S. Flatsedge plant response rating [16, 26]: 0
